Data: ChEMBL document CHEMBL1137027, “Stereoselective synthesis and preliminary evaluation of new D-3-heteroarylcarbonylalanines as ligands of the NMDA receptor” (Bioorg Med Chem Lett, 2004)

Columns and labels:
[1] = target: Glutamate NMDA receptor; assay: Inhibition of [3H]MK-801 binding to NMDA receptor of adult Wistar rat brain cortical membranes; assay type: cell membranes, Membrane
[2] = species: Rattus norvegicus; assay: Percent inhibition of delayed neural death at concentration of 50 uM induced by glutamate and glycine in neocortical neurons of Wistar rat fetus; assay type: functional
[3] = species: Rattus norvegicus; assay: Percent inhibition of delayed neural death at concentration of 500 uM induced by glutamate and glycine in neocortical neurons of Wistar rat fetus; assay type: functional
[4] = target: Glutamate NMDA receptor; assay: Inhibition of [3H]MK-801 binding to NMDA receptor of adult Wistar rat brain cortical membranes: Range 50-500; assay type: cell membranes, Membrane

Row | Structure (SMILES) | IC50 [1] [µM] | Inhibition [2] [%] | Inhibition [3] [%] | IC50 [4] [µM]
1 | N[C@H](CC(=O)c1ccccn1)C(=O)O | ~300 | 18.4 | 60.3 | –
2 | N[C@H](CC(=O)c1cccs1)C(=O)O | – | – | – | < 500
